The source of these data is publication PMC9929129, “Towards Translation of PqsR Inverse Agonists: From In Vitro Efficacy Optimization to In Vivo Proof‐of‐Principle” (Advanced Science, 2023).

For orientation: IC50 means the concentration that gives 50% inhibition. One may read the inhibition as the drop in the measured response relative to a control, in per cent. Higher therefore signals a strong effect.

Test [1] has as its system Pseudomonas aeruginosa strain RP73. The test is described as follows: Alkylquinolone quantification, strain RP73. Format: cell-based. Conditions: RP73, 17 h. On the procedure:
re-extracted with 0.2 M HCl and quantified photometrically (520 nm). IC50 values were determined from dose-response curves of compounds using at least six different concentrations and fitting with non-linear regression analysis (OriginPro 2017–2020, Originlab Corporation).
1.2.3 Alkylquinolone quantification
Inhibition of alkylquinolone (AQ) signal molecule biosynthesis of compound 24 was analyzed via LC-ESI-MS/MS. Extracellular concentrations of the AQs PQS (2-heptyl-3-hydroxy-4-quinolone), HHQ (2-heptyl-4-quinolone), HQNO (N-oxo-2-heptyl-4-Hydroxyquinoline), 2-AA (2-aminoacetophenone) were measured from supernatants of cultures incubated with or without compound for 17 h. 5,6,7,8-Tetradeutero-2-heptyl-4(1H)-quinolone (HHQ-d4) was added as internal standard before sample preparation. IC50 values were calculated according to the procedure of the pyocyanin assay (see above). LC-ESI-MS/MS conditions were as follows: Dionex Ultimate 3000 HPLC instrument parameters: Zorbax Eclipse XDB 80 Å C18 5 µm 4.6 x 50 mm (Agilent, Santa Clara, CA, USA); eluent A – H2O with 0.1% trifluoroacetic acid (TFA), 0.1% pentafluoropropionic acid (PFPA), 0.1% heptafluorobutyric acid (HFBA); eluent B – acetonitrile with 0.1% TFA, 0.1% PFPA, 0.1% HFBA; isocratic 50% A; flow – 0.7 mL/min. TSQ Quantum Access Max (Thermo Fisher Scientific, Waltham, MA, USA) instrument parameters: Spray voltage 3500 V, vaporizer temperature 370 °C, sheath gas pressure 35 psi, aux gas pressure 30 psi, capillary temperature 270 °C, collision pressure 1.5 mTorr, positive ionization mode. For AQ analyte reaction monitoring parameters please see Table S1.
Table S1. LC-ESI-MS/MS reaction monitoring parameters of AQ analytes in positive ionization mode. precursor product ion collision tube lens retention ion m/z m/z energy (V) offset (V) time (min)
1.2.4 Biofilm-formation assay […]
(Innvotech, Edmonton, CA). An overnight culture of PA14 was centrifuged (10 min, 5000 x g). The supernatant including extracellular polymers was removed and the pellet washed with 10 mL of LB medium. Centrifugation was repeated, the supernatant discarded, and the pellet resuspended in 5 mL of LB. OD was adjusted to 0.2. The bacteria were further diluted in LB medium, followed by addition of the target compound or DMSO control to give OD 0.1 and 1% DMSO. 150 µL were added to each well of the 96-well plate. The outer wells were used as blanks containing 150 µL of 1% DMSO in LB. Six replicates per sample were distributed evenly across the plate, with every row containing one replicate of each sample. The well plate was covered with the peg lid. One layer of parafilm was wrapped around the biofilm inoculator. The inoculator was incubated at 37 °C, static for 24 h with a beaker of H2O ensuring humidity. […]

Test [2] has as its target T1, NET human norepinephrine transporter (Homo sapiens, UniProt P23975).
T1 construct: Eurofins 302000
The experiment in a line: NET functional antagonist uptake assay (Eurofins). Format: cell-based. As for the experimental part: (§1) 1.4.2 Further functional off-target assays (Eurofins)
(§2) Table S8. Compound 24 was further tested in the following functional assays at Eurofins.
ASSAY NAME ESTIMATED IC50 [µM]
NET human norepinephrine transporter functional antagonist uptake >10 µM […]
(§3) FLIPR Assay expressed in HEK293 cells
(§4) GABAA α5/β3/γ2 ionotropic receptor (human GABRA5, GABRB3, >30
(§5) and GABRG2 genes, expressed in HEK293 cells

Test [3] concerns the target T2, Nav1.5 human sodium ion channel (Homo sapiens, UniProt Q14524).
T2 construct: Eurofins CYL8004QP2DR
The experiment in a line: Nav1.5 automated patch clamp CiPA assay (Eurofins). Type of test: cell-based. As for the experimental part: as §1, §2
ASSAY NAME ESTIMATED IC50 [µM] […]
Nav1.5 human sodium ion channel cell based automated patch clamp >30 µM
CiPA assay (CYL8004QP2DR) […]
as §3, §4, §5

Test [4] addresses T3, CFTR cystic fibrosis transmembrane conductance regulator (Homo sapiens, UniProt P13569).
T3 construct: host or cells: CHO cells
The experiment in a line: Ion channel profiling at Charles River: CFTR. Format: cell-based. Conditions: expressed in CHO cells; read-out: ESTIMATED IC50. As for the experimental part: (§6) 1.4.3 Ion Channel Profiling at Charles River
(§7) Table S9. Compound 24 was tested against the following ion channels at Charles River Laboratories. […]
FASTPatch Assay IK (KCa3.1) calcium-activated potassium channel (human KCNN4 >30 gene) expressed in CHO cells […]
CFTR cystic fibrosis transmembrane conductance regulator (Cl-channel encoded by human CFTR gene) expressed in CHO cells >30 […]
as §3
GABAA α5/β3/γ2 ionotropic receptor (human GABRA5, GABRB3, >30 and GABRG2 genes, expressed in HEK293 cells

In a further test the target is T4, TRPV4 channel (Homo sapiens, UniProt Q9HBA0).
T4 construct: host or cells: CHO cells
T4 sequence (Q9HBA0 whole entry): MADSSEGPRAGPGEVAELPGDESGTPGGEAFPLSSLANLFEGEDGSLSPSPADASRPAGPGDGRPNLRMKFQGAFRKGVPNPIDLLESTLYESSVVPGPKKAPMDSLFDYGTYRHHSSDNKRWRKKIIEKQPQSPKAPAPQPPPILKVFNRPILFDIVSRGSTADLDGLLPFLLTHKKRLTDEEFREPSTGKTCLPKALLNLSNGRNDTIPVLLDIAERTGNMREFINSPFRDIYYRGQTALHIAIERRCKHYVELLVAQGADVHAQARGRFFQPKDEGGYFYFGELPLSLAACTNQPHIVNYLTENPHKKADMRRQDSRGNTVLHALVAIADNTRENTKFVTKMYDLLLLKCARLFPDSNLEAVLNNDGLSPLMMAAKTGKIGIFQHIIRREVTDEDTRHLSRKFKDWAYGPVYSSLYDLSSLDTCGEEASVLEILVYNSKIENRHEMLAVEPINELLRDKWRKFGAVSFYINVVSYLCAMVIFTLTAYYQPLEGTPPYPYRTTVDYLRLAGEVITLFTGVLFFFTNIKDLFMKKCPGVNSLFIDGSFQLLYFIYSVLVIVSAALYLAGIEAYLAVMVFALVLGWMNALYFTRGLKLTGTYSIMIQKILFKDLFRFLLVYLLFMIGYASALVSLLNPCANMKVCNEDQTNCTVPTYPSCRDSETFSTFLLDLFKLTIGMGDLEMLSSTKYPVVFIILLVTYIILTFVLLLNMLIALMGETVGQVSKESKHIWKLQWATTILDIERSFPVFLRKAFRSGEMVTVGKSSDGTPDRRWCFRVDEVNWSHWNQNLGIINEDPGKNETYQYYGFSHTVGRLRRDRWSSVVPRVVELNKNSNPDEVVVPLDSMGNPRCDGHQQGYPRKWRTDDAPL
The test is described as follows: Ion channel profiling at Charles River: TRPV4. Format: cell-based. Conditions: expressed in CHO cells; read-out: ESTIMATED IC50. As for the experimental part: as §6, §7
ScreenPatch Assay Kv1.3 potassium channel (human KCNA3 gene) expressed in CHO […]
as §3
GABAA α5/β3/γ2 ionotropic receptor (human GABRA5, GABRB3, >30 and GABRG2 genes, expressed in HEK293 cells […]
An increase in the number of colonies of at least two-fold over baseline (mean + SD of the vehicle control) and a dose response indicate a positive response. An […]
different from the vehicle control.
Where indicated, S9 fraction from the livers of Aroclor 1254-treated rats were included in the incubation at a final concentration of 4.5%. A NADPH-regenerating system was also included to ensure a steady supply of reducing equivalents.

For a further test, the system named is Na+ channel (site 2). The experiment in a line: Cerep panel binding assay. Further details: species or system rat. Conditions: 10 µM, antagonist radioligand. On the procedure:
(§8) 1.4 Safety Pharmacology of Compound 24
(§9) 1.4.1 Cerep panel (Eurofins)
(§10) Compound 24 was further profiled for its off-target interactions against a panel of 44 targets. The
(§11) screening was done by Eurofins Pharma Discovery within the SafetyScreen44 Panel (Cerep, ITEM
(§12) P270). In all assays binding/functional inhibition was determined at 10 µM.
(§13) Table S6. […]

Another test has as its target T5, V1a (h) (Homo sapiens, UniProt P37288).
T5 construct: purchased Eurofins Pharma Discovery (Cerep) SafetyScreen44 Panel, ITEM P270
The test is described as follows: Cerep panel binding assay. Conditions: agonist radioligand. As for the experimental part: as §8, §9, §10, §11, §12, §13
V1a (h) (agonist radioligand) 7.6

Values joined by “and” are separate entries in the source; they are usually repeats but may differ in a detail not shown here. Identical values can stand only once. Like-named read-outs stand apart in the source and are kept apart here.

T5 sequence (P37288 whole entry): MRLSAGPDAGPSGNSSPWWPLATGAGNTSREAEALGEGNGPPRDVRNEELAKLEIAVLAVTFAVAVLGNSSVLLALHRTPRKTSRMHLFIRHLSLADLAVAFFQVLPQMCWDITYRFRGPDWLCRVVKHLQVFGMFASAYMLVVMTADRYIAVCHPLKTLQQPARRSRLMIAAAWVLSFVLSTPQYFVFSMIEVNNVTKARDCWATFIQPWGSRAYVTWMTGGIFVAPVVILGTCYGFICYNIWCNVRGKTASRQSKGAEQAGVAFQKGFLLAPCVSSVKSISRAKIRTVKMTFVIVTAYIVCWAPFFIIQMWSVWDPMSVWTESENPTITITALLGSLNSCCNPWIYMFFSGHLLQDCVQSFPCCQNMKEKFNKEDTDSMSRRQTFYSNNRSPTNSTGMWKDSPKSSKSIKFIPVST
T3 sequence (P13569 whole entry): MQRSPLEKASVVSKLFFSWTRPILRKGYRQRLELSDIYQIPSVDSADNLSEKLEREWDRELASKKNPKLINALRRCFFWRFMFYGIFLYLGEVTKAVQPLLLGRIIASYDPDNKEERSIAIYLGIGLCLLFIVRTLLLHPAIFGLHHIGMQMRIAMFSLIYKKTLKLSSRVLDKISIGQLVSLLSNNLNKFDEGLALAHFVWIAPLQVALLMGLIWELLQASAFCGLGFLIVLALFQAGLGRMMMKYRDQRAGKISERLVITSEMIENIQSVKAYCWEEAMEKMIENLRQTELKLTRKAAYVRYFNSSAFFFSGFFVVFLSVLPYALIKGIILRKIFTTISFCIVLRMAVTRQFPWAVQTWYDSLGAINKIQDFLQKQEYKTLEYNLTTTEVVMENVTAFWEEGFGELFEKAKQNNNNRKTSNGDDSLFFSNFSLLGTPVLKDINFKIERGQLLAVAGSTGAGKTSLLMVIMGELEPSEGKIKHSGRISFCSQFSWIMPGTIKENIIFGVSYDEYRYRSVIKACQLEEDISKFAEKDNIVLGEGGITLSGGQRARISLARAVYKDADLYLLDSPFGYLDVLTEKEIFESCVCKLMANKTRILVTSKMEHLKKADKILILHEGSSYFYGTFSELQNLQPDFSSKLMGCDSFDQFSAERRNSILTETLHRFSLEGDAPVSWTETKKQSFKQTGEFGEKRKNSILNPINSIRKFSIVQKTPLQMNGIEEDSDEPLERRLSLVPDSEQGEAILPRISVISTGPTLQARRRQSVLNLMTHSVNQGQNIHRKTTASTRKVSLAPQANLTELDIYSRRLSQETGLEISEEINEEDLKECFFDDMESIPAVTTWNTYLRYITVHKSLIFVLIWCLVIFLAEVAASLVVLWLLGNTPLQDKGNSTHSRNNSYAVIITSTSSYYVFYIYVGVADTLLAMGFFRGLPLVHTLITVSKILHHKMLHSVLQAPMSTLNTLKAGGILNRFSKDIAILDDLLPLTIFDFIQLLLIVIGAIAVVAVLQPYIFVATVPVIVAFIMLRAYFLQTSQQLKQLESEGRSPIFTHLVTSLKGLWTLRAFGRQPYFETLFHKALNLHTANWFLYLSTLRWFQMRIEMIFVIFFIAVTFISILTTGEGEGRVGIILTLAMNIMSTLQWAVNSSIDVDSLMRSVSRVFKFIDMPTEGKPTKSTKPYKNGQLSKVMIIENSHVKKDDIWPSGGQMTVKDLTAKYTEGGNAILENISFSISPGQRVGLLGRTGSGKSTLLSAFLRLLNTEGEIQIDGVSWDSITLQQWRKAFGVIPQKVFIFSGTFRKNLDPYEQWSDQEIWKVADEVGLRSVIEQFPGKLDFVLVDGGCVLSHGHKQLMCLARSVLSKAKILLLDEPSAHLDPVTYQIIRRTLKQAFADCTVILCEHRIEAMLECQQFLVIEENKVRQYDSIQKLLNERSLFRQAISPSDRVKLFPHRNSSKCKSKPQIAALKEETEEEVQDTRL
T1 sequence (P23975 whole entry): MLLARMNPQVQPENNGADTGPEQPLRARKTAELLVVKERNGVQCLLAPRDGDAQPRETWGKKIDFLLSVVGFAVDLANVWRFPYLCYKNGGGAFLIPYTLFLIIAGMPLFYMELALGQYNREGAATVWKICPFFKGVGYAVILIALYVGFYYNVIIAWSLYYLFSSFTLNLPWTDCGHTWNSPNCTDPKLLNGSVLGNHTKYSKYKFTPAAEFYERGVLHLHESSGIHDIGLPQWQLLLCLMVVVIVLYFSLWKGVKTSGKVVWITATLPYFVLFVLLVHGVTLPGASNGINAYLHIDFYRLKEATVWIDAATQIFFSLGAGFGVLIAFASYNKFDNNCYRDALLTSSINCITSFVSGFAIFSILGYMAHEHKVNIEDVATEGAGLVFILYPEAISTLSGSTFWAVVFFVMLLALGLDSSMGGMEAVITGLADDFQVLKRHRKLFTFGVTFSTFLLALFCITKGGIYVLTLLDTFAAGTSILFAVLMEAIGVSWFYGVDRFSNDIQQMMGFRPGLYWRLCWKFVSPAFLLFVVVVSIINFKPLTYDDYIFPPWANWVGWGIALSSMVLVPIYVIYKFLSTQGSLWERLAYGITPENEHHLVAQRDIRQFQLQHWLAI

In the case of `CC(C)Oc1ccc(-c2ncc(CNc3ccnc(C(F)(F)F)c3)cn2)cc1Cl` [Compound 24], the half-maximal inhibitory concentration (IC50) in test [1] (read-out: IC50 RP73, 2‐AA biosynthesis) is 213 nM; in test [1] (read-out: IC50 RP73, HHQ biosynthesis), 453 nM; in test [1] (read-out: IC50 RP73, HQNO biosynthesis) it was 230 nM; in test [1] (read-out: IC50 RP73, PQS biosynthesis) it was 160 nM; in test [2], more than 10000 nM; in test [3] it was more than 30000 nM. For the same molecule, the IC50 (in test [4]; at TRPV4 channel) was more than 30000 nM throughout. Further, the “BINDING (%)” value in the test on Na+ channel (site 2) was 57.2% and > 50%. Also, at V1a (h), the inhibition at 10 µM came out at 7.6%.
